Target: T1, mouse TLR4 (Mus musculus, UniProt Q9JHF9+Q9QUK6)
T1 sequence (Q9QUK6 26-835): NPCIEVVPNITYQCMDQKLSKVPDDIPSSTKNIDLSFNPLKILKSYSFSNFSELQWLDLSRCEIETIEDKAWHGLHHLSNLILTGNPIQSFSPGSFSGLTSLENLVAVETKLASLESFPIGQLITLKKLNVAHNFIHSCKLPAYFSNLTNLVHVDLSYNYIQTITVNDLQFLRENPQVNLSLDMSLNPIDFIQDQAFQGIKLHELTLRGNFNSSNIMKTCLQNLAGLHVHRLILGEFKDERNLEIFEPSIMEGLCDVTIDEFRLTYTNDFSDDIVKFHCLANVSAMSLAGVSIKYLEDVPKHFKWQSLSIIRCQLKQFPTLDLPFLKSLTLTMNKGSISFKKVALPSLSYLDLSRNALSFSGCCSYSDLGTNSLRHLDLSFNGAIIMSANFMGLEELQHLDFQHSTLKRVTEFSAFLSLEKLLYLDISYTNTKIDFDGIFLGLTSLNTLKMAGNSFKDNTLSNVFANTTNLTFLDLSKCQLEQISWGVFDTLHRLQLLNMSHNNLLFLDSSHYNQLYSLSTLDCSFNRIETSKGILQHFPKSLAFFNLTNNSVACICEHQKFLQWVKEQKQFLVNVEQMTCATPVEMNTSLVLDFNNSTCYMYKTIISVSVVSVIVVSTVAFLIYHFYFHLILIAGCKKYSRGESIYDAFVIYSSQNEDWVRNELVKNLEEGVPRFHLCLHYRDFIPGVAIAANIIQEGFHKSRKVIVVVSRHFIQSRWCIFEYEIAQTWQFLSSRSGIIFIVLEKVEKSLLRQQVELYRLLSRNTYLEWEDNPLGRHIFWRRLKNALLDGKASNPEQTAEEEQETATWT
T1 sequence (Q9JHF9 19-160): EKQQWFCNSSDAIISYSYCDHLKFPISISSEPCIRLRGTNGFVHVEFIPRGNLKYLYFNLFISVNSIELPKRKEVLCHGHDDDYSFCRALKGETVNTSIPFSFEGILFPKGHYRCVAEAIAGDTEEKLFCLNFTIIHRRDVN
Assay: SEAP assay, agonist dose response in mouse TLR4 HEK-Blue reporter cells
Assay type: cell-based
Parameters: host or cells: HEK-Blue (HEK293-derived) reporter cells
Conditions: for agonist profile: mouse TLR4 HEK-Blue reporter cells
Procedure: Human and mouse HEK-Blue reporter cells express human or mouse CD14, MD2, and TLR4 and secreted embryonic alkaline phosphatase (SEAP) under control of a promoter with binding sites for NFκB and AP-1 transcription factors (InvivoGen cat. nos. hkb-htlr4 and hkb-mtlr4). Cells were cultured as directed by the supplier, with the exception that Glutamax (ThermoFisher cat. no. 10569010) was used in place of L-glutamine, and TrypLE Express (ThermoFisher cat. no. 12605010) was used to release adherent cells for each passage. BALB/c mouse RAW264.7 and human THP-1 cells (ATCC® cat. nos. TIB-71 and TIB-202) were cultured in DMEM (4.5 g/L D-Glucose with 2 mM L-glutamine, 1 mM sodium pyruvate, 100 U/ml penicillin and 100 μg/ml streptomycin) supplemented with 10% heat-inactivated FBS. THP-1 cells were exposed to phorbol-12-myristate-13-acetate (PMA, InvivoGen cat no. tlrl-pma), 5 ng/ml, for 48 h prior to treatment with TLR4 agonists. Bone marrow-derived dendritic cells (BMDCs) were generated using C57BL/6 mouse femurs following the exact method published by Lutz et al. ([29]) except that 5 rather than 20 ng/ml recombinant GM-CSF was used to differentiate the DC. Human peripheral blood […] (PBMCs) were prepared from venous blood of healthy volunteers that had been collected using sodium citrate as anti-coagulant, 20 ml of which was mixed with 15 ml calcium- and magnesium-free Hank’s Balanced Saline Solution (HBSS) and then laid over 6 ml Histopaque®-1077 (1.077 g/ml, Sigma-Aldrich cat no. 10771) for density gradient centrifugation. The buffy coat layer was collected by pipette, washed once in HBSS, once in serum-free RPMI-1640, and then the PBMCs were resuspended in RPMI-1640 supplemented with 100 U/ml penicillin, 100 µg/ml streptomycin, 1 mM Na-Pyruvate, 2 mM L-glutamine, 50 μM βME and 10% heat-inactivated, male AB human serum for culture.
SEAP assays were performed to evaluate the extent to which TLR4 signaling was activated in HEK-Blue reporter cells expressing mouse or human receptors (CD14, MD2 and TLR4). Reporter cells were harvested when 70–80% confluent and plated in 96-well, flat-bottom microtiter plates either 1 h, one day or two days (5 × 10^4, 4 × 10^4 or 2 × 10^4 cells/well, respectively) before addition of TLR4 agonists for 18–24 h. Culture supernatants were transferred to U-bottom microtiter plates, centrifuged and transferred again to microtiter plates to ensure reporter cells were not present. The culture supernatants were added to QUANTI-BLUE substrate following instructions provided by the manufacturer (InvivoGen cat. nos. rep-qbl or rep-qbs) and incubated at 37°C in a tissue culture incubator. At successive intervals beginning 10 min after mixing the supernatants and substrate, the plates were placed in an Emax plate reader (Molecular Devices LLC) and optical density was measured at visible light wavelength […] (OD650). The shortest incubations at which dose response curve fits produced maximal R^2 ‘goodness of fit’ values, as determined by GraphPad Prism software, were used for analysis.
Pharmacological profiles of the TLR4 reagents were generated by performing dose response curves in one of four formats. 1) Agonist potency and efficacy (EC50 and height of dose plateau, respectively) were measured by diluting TLR4 reagents successively in complete culture medium [DMEM or RPMI supplemented with fetal bovine serum (FBS) or RPMI supplemented with human serum, depending on cell-type]. Half-log step dilutions were performed in 96-well, U-bottom microtiter plates using a multichannel pipette to transfer and mix the suspensions, with fresh tips used for each dilution step. One-tenth (20 μl) volumes from wells of the dilution plate were then transferred to wells containing cells that had been plated in nine-tenth volumes (180 μl) of culture medium. […]

Row | Structure (SMILES) | agonist profile | efficacy relative to the full agonist PHAD (mouse TLR4 HEK-Blue, 100% = top dose plateau of PHAD) [%]
1 | CCCCCCCCCCCC(=O)OC(CCCCCCCCCCC)CC(=O)NC1C(OCC2OC(O)C(NC(=O)CC(O)CCCCCCCCCCC)C(O)C2O)OC(CO)C(OP(=O)(O)O)C1OC(=O)CC(O)CCCCCCCCCCC (stereo not shown) [ML4A] | agonist only of mouse TLR4 | ~80
2 | CCCCCCCCCCCC(=O)OC(CCCCCCCCCCC)CC(=O)NC1C(OCC2OC(O)C(NC(=O)CC(O)CCCCCCCCCCC)C(O)C2O)OC(CO)C(OP(=O)(O)O)C1O (stereo not shown) [ML3] | largely inactive | –
3 | CCCCCCCCCCCCCCCC(=O)OC(CCCCCCCCCCC)CC(=O)NC1C(O)OC(COC2OC(CO)C(OP(=O)(O)O)C(O)C2NC(=O)CC(CCCCCCCCCCC)OC(=O)CCCCCCCCCCC)C(O)C1O (stereo not shown) [ML4B] | largely inactive | –
